From ChEMBL document CHEMBL5331098, “Nanomolar β-glucosidase and β-galactosidase inhibition by enantiomeric α-1-C-alkyl-1,4-dideoxy-1,4-imino-arabinitol derivatives” (Eur J Med Chem, 2023)

Key:
[1] = biological target: T1, Alpha-mannosidase (Canavalia ensiformis) (UniProt C0HJB3); experiment: Inhibition of jack bean alpha-mannosidase assessed as reduction of p-nitrophenol release using p-nitrophenyl glycoside as substrate at 1000 uM by spectrophotometric analysis relative to control
T1 sequence (whole entry): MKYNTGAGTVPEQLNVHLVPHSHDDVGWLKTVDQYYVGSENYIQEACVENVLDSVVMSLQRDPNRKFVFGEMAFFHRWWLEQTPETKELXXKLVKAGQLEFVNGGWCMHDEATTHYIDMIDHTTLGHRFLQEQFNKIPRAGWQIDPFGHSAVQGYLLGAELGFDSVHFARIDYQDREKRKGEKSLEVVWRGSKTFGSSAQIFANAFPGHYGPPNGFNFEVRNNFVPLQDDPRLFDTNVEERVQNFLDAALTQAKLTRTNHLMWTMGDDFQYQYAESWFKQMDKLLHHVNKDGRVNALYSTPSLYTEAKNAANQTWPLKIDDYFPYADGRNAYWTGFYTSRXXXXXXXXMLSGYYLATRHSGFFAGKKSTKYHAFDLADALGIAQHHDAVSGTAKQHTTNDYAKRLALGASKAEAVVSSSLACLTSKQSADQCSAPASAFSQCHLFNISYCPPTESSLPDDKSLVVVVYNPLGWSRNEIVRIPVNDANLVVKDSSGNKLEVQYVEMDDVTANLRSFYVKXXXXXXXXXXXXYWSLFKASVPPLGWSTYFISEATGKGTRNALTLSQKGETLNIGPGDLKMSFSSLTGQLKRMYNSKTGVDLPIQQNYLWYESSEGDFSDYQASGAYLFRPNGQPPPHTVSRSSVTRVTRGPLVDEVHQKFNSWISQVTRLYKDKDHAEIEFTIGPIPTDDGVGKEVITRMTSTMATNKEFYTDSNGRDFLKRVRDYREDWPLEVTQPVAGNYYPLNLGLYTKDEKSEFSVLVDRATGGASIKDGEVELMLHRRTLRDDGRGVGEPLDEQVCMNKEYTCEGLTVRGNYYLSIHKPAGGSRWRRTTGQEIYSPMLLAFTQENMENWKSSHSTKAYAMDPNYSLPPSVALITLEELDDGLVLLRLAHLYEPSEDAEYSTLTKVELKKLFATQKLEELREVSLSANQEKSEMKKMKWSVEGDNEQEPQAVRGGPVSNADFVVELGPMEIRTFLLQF

Beta-glucuronidase = Beta-glucuronidase (Escherichia coli (strain K12), UniProt P05804); experiment: Inhibition of Escherichia coli beta-glucuronidase assessed as reduction of p-nitrophenol release using p-nitrophenyl-glycoside as substrate by spectrophotometric analysis
Bos taurus = species on record: Bos taurus; experiment: Inhibition of bovine liver beta-glucuronidase assessed as reduction of p-nitrophenol release using p-nitrophenyl-glycoside as substrate at 1000 uM by spectrophotometric analysis relative to control
Helix pomatia = experiment: Inhibition of snail beta-mannosidase assessed as reduction of p-nitrophenol release using p-nitrophenyl glycoside as substrate at 1000 uM by spectrophotometric analysis relative to control
[2] = Inhibition of human lysosomal beta-glucosidase assessed as reduction of p-nitrophenol release using p-nitrophenyl glycoside as substrate by spectrophotometric analysis
[3] = Inhibition of bovine liver beta-glucosidase assessed as reduction of p-nitrophenol release using p-nitrophenyl glycoside as substrate by spectrophotometric analysis; parameters: species or system Bos taurus
[4] = biological target: Alpha-glucosidase (Saccharomyces cerevisiae S288c) (UniProt P53341+P38158+P07265); experiment: Inhibition of yeast alpha-glucosidase assessed as reduction of p-nitrophenol release using p-nitrophenyl glycoside as substrate at 1000 uM by spectrophotometric analysis relative to control; assay type: protein assay
[5] = biological target: T2, Tissue alpha-L-fucosidase (Bos taurus) (UniProt Q2KIM0); experiment: Inhibition of bovine kidney alpha-L-fucosidase assessed as reduction of p-nitrophenol release using p-nitrophenyl glycoside as substrate at 1000 uM by spectrophotometric analysis relative to control
T2 sequence (whole entry): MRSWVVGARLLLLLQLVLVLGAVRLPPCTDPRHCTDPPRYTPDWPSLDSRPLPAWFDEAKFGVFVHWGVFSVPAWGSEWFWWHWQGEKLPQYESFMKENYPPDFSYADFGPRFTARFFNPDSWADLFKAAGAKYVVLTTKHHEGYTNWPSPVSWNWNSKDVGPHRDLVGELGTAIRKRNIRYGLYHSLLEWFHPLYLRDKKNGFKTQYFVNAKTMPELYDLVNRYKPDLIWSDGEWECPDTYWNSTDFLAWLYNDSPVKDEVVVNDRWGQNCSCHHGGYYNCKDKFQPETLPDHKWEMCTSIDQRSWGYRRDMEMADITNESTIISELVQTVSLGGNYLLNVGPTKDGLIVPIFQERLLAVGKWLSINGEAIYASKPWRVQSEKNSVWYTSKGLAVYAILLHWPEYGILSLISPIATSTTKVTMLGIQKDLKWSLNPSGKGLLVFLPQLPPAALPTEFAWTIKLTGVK

[6] = Inhibition of almond beta-glucosidase assessed as reduction of p-nitrophenol release using p-nitrophenyl glycoside as substrate by spectrophotometric analysis; parameters: species or system Prunus dulcis
Penicillium decumbens = experiment: Inhibition of Penicillium decumbens alpha-L-rhamnosidase assessed as reduction of p-nitrophenol release using p-nitrophenyl-glycoside as substrate at 1000 uM by spectrophotometric analysis relative to control
Oryza sativa = experiment: Inhibition of rice alpha-glucosidase assessed as reduction of p-nitrophenol release using p-nitrophenyl glycoside as substrate at 1000 uM by spectrophotometric analysis relative to control
[7] = Inhibition of Aspergillus niger amyloglucosidase assessed as reduction of p-nitrophenol release using p-nitrophenyl-glycoside as substrate by spectrophotometric analysis
Sus scrofa = species on record: Sus scrofa; experiment: Inhibition of porcine kidney alpha/alpha-trehalase assessed as reduction of p-nitrophenol release using p-nitrophenyl glycoside as substrate at 1000 uM by spectrophotometric analysis relative to control
[8] = biological target: Alpha-galactosidase (Coffea arabica) (UniProt Q42656); experiment: Inhibition of coffee beans alpha-galactosidase assessed as reduction of p-nitrophenol release using p-nitrophenyl glycoside as substrate at 1000 uM by spectrophotometric analysis relative to control
Rattus norvegicus = species on record: Rattus norvegicus; experiment: Inhibition of rat intestinal maltase assessed as D-glucose release using maltose as substrate at pH 6.8 at 1000 uM by colorimetric method relative to control
[9] = Inhibition of bovine liver beta-galactosidase assessed as reduction of p-nitrophenol release using p-nitrophenyl glycoside as substrate by spectrophotometric analysis; parameters: species or system Bos taurus
Alpha-glucosidase = Alpha-glucosidase (Saccharomyces cerevisiae S288c, UniProt P53341+P38158+P07265); experiment: Inhibition of yeast alpha-glucosidase assessed as reduction of p-nitrophenol release using p-nitrophenyl glycoside as substrate by spectrophotometric analysis; assay type: protein assay
Aspergillus niger = experiment: Inhibition of Aspergillus niger amyloglucosidase assessed as reduction of p-nitrophenol release using p-nitrophenyl-glycoside as substrate at 1000 uM by spectrophotometric analysis relative to control

Sequence of Beta-glucuronidase (P05804 whole entry): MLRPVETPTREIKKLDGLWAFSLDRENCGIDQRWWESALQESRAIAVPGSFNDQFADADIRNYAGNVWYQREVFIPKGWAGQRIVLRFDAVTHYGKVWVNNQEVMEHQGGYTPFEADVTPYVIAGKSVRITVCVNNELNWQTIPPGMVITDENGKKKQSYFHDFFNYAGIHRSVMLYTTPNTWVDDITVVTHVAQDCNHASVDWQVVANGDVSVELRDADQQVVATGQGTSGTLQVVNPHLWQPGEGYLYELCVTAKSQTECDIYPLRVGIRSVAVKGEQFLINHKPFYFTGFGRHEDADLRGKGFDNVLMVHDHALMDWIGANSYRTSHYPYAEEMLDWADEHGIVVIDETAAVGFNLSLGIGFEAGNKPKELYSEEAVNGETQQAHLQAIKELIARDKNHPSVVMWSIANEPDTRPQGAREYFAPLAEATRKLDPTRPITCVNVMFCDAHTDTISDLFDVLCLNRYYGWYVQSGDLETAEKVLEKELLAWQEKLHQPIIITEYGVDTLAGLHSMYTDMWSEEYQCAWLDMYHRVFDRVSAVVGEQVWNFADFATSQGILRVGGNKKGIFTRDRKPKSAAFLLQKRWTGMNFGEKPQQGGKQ
Sequence of Alpha-galactosidase (Coffea arabica) (Q42656 16-378 limits assumed): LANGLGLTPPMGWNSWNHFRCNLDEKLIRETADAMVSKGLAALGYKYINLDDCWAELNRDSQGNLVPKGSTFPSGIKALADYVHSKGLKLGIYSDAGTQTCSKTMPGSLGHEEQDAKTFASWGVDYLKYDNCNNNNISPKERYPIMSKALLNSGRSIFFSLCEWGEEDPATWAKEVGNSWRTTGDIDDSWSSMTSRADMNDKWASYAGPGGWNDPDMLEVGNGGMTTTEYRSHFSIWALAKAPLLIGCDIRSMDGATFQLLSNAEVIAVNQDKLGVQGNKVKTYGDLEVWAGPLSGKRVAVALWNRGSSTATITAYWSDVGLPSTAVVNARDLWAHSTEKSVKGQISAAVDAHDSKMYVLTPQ

Question: What does the source list for `OC[C@H]1N[C@H]([C@@H](O)CCCCCCc2ccc(F)c(F)c2)[C@@H](O)[C@@H]1O`?
Answer: inhibition [1]: 0%; IC50 (Beta-glucuronidase): 25 µM; inhibition (Bos taurus): 1.6%; inhibition (Helix pomatia): 48.6%; IC50 [2]: 3.8 µM; IC50 [3]: 0.09 µM; inhibition [4]: 25.2%; inhibition [5]: 0.3%; IC50 [6]: 1.5 µM; inhibition (Penicillium decumbens): 2.2%; inhibition (Oryza sativa): 18.4%; IC50 [7]: 59 µM; inhibition (Sus scrofa): 0%; inhibition [8]: 0%; inhibition (Rattus norvegicus): 15%; IC50 [9]: 0.026 µM

Question: Which inhibition [1] does the source give for `Cc1ccc(CCCCCCC[C@H]2N[C@H](CO)[C@@H](O)[C@@H]2O)cc1.Cl` here?
Answer: 3.5%

Question: And the IC50 (Beta-glucuronidase)?
Answer: 42 µM

Question: And the inhibition (Bos taurus)?
Answer: 0%

Question: What about the inhibition (Helix pomatia) of the same compound?
Answer: 37%

Question: What about the IC50 [2] of the same compound?
Answer: 5.2 µM

Question: And the IC50 [3]?
Answer: 0.034 µM

Question: And the inhibition [5]?
Answer: 8.6%

Question: And the IC50 [6]?
Answer: 10 µM

Question: And the inhibition (Penicillium decumbens)?
Answer: 14.5%

Question: What about the inhibition (Oryza sativa) of the same compound?
Answer: 34.4%

Question: And the IC50 [7]?
Answer: 33 µM

Question: And the inhibition (Sus scrofa)?
Answer: 3.5%

Question: What about the inhibition [8] of the same compound?
Answer: 9.7%

Question: What about the inhibition (Rattus norvegicus) of the same compound?
Answer: 49.9%

Question: What about the IC50 [9] of the same compound?
Answer: 0.008 µM

Question: What about the IC50 (Alpha-glucosidase) of the same compound?
Answer: 92 µM

Question: Which results are given for `OC[C@H]1N[C@H]([C@@H](O)CCCCCCc2ccc(F)cc2)[C@@H](O)[C@@H]1O`?
Answer: inhibition [1]: 0%; IC50 (Beta-glucuronidase): 62 µM; inhibition (Bos taurus): 0.3%; inhibition (Helix pomatia): 46.3%; inhibition (Aspergillus niger): 46.4%; IC50 [2]: 5.2 µM; IC50 [3]: 0.09 µM; inhibition [4]: 42.8%; inhibition [5]: 1.5%; IC50 [6]: 0.47 µM; inhibition (Penicillium decumbens): 4%; inhibition (Oryza sativa): 21.3%; inhibition (Sus scrofa): 7.5%; inhibition [8]: 0.6%; inhibition (Rattus norvegicus): 23.9%; IC50 [9]: 0.025 µM

Question: Which inhibition [1] does the source give for `OC[C@H]1N[C@H]([C@@H](O)CCCCCCc2ccccc2)[C@@H](O)[C@@H]1O` here?
Answer: 0%

Question: What about the IC50 (Beta-glucuronidase) of the same compound?
Answer: 43 µM

Question: What about the inhibition (Bos taurus) of the same compound?
Answer: 0%

Question: What about the inhibition (Helix pomatia) of the same compound?
Answer: 37.6%

Question: And the inhibition (Aspergillus niger)?
Answer: 39.7%

Question: And the IC50 [2]?
Answer: 7.6 µM

Question: And the IC50 [3]?
Answer: 0.13 µM

Question: What about the inhibition [4] of the same compound?
Answer: 14.1%

Question: And the inhibition [5]?
Answer: 0%

Question: What about the IC50 [6] of the same compound?
Answer: 0.62 µM

Question: And the inhibition (Penicillium decumbens)?
Answer: 3.5%

Question: What about the inhibition (Oryza sativa) of the same compound?
Answer: 15.8%

Question: What about the inhibition (Sus scrofa) of the same compound?
Answer: 4.5%

Question: What about the inhibition [8] of the same compound?
Answer: 0%

Question: What about the inhibition (Rattus norvegicus) of the same compound?
Answer: 18.6%

Question: And the IC50 [9]?
Answer: 0.042 µM

Question: Which inhibition [1] does the source give for `Cl.OC[C@H]1N[C@H](CCCCCCCc2cccc(F)c2)[C@@H](O)[C@@H]1O` here?
Answer: 3.1%

Question: And the IC50 (Beta-glucuronidase)?
Answer: 19.4 µM

Question: What about the inhibition (Bos taurus) of the same compound?
Answer: 6.9%

Question: What about the inhibition (Helix pomatia) of the same compound?
Answer: 36.6%

Question: What about the IC50 [3] of the same compound?
Answer: 0.04 µM

Question: What about the inhibition [5] of the same compound?
Answer: 2.7%

Question: And the IC50 [6]?
Answer: 11.5 µM

Question: What about the inhibition (Penicillium decumbens) of the same compound?
Answer: 10%

Question: What about the inhibition (Oryza sativa) of the same compound?
Answer: 21.3%

Question: What about the IC50 [7] of the same compound?
Answer: 40.9 µM

Question: What about the inhibition (Sus scrofa) of the same compound?
Answer: 7.5%

Question: What about the inhibition [8] of the same compound?
Answer: 1.1%

Question: And the inhibition (Rattus norvegicus)?
Answer: 32.8%

Question: And the IC50 [9]?
Answer: 0.011 µM

Question: And the IC50 (Alpha-glucosidase)?
Answer: 17.2 µM

Question: With `Cl.OC[C@H]1N[C@H](CCCCCCCc2ccc(F)cc2)[C@@H](O)[C@@H]1O` as the compound, how does the inhibition [1] read?
Answer: 22.7%

Question: And the IC50 (Beta-glucuronidase)?
Answer: 34.5 µM

Question: What about the inhibition (Bos taurus) of the same compound?
Answer: 42.5%

Question: What about the inhibition (Helix pomatia) of the same compound?
Answer: 37.1%

Question: What about the IC50 [3] of the same compound?
Answer: 0.043 µM

Question: What about the inhibition [5] of the same compound?
Answer: 38.7%

Question: What about the IC50 [6] of the same compound?
Answer: 15.6 µM

Question: What about the inhibition (Penicillium decumbens) of the same compound?
Answer: 13%

Question: What about the inhibition (Oryza sativa) of the same compound?
Answer: 11.7%

Question: And the IC50 [7]?
Answer: 31.9 µM

Question: And the inhibition (Sus scrofa)?
Answer: 4%

Question: What about the inhibition [8] of the same compound?
Answer: 20.5%

Question: And the inhibition (Rattus norvegicus)?
Answer: 15.9%

Question: And the IC50 [9]?
Answer: 0.008 µM

Question: What about the IC50 (Alpha-glucosidase) of the same compound?
Answer: 32.2 µM

Question: For `Cl.OC[C@H]1N[C@H]([C@@H](O)CCCCCCc2ccc(Cl)cc2)[C@@H](O)[C@@H]1O`, which inhibition [1] is on record?
Answer: 0%

Question: And the IC50 (Beta-glucuronidase)?
Answer: 13 µM

Question: What about the inhibition (Bos taurus) of the same compound?
Answer: 0%

Question: And the inhibition (Helix pomatia)?
Answer: 45.4%

Question: What about the inhibition (Aspergillus niger) of the same compound?
Answer: 41.7%

Question: What about the IC50 [2] of the same compound?
Answer: 6.1 µM

Question: And the IC50 [3]?
Answer: 0.07 µM

Question: What about the inhibition [5] of the same compound?
Answer: 2.1%

Question: What about the IC50 [6] of the same compound?
Answer: 1.2 µM

Question: And the inhibition (Penicillium decumbens)?
Answer: 3.5%

Question: What about the inhibition (Oryza sativa) of the same compound?
Answer: 16.5%

Question: And the inhibition (Sus scrofa)?
Answer: 5.5%

Question: And the inhibition [8]?
Answer: 0%

Question: And the inhibition (Rattus norvegicus)?
Answer: 1.1%

Question: What about the IC50 [9] of the same compound?
Answer: 0.024 µM

Question: And the IC50 (Alpha-glucosidase)?
Answer: 59 µM
